We go through six molecules from the NIST ThermoML archive (doi:10.1021/je100253m).

SMILES strings stand for the structures. Numbers after ± are expanded uncertainties.

For this series the following is noted: Ring tensiometer.

Take `CCn1cc[n+](CC)c1.O=S(=O)([N-]S(=O)(=O)C(F)(F)F)C(F)(F)F` [1,3-diethylimidazolium bis[(trifluoromethyl)sulfonyl]imide]: the surface tension liquid-gas (commonly the work needed to enlarge the surface of a liquid by unit area) stood at 35.76 ± 0.52 mN/m (293.15 K); 35.37 ± 0.52 mN/m (303.15 K); 34.94 ± 0.51 mN/m (313.15 K); 34.56 ± 0.51 mN/m (323.15 K); 34.15 ± 0.5 mN/m (333.15 K); 33.7 ± 0.5 mN/m (343.15 K).

As to `CCCCn1cc[n+](C)c1C.O=S(=O)([N-]S(=O)(=O)C(F)(F)F)C(F)(F)F`, the surface tension liquid-gas reads like this: (293.15 K) 37.4 ± 0.55 mN/m; (303.15 K) 35.54 ± 0.52 mN/m; (313.15 K) 33.83 ± 0.5 mN/m; (323.15 K) 32.2 ± 0.48 mN/m; (333.15 K) 30.49 ± 0.46 mN/m; (343.15 K) 28.74 ± 0.44 mN/m.

Take `CCC[n+]1cccc(C)c1.O=S(=O)([N-]S(=O)(=O)C(F)(F)F)C(F)(F)F`: the surface tension liquid-gas is given as 36 ± 0.53 mN/m (293.15 K); 35.53 ± 0.52 mN/m (303.15 K); 35.1 ± 0.52 mN/m (313.15 K); 34.53 ± 0.51 mN/m (323.15 K); 34.05 ± 0.5 mN/m (333.15 K); 33.55 ± 0.5 mN/m (343.15 K).

`CCCCCCCCCCCCCC[P+](CCCCCC)(CCCCCC)CCCCCC.O=S(=O)([N-]S(=O)(=O)C(F)(F)F)C(F)(F)F`: the surface tension liquid-gas came out at 30.75 ± 0.46 mN/m (293.15 K); 30.25 ± 0.46 mN/m (303.15 K); 29.52 ± 0.45 mN/m (313.15 K); 28.87 ± 0.44 mN/m (323.15 K); 28.21 ± 0.43 mN/m (333.15 K); 27.59 ± 0.42 mN/m (343.15 K).

With `CCCC[N+]1(C)CCCC1.O=S(=O)([N-]S(=O)(=O)C(F)(F)F)C(F)(F)F`, the surface tension liquid-gas runs as follows: (293.15 K) 34.93 ± 0.51 mN/m; (303.15 K) 34.35 ± 0.51 mN/m; (313.15 K) 33.65 ± 0.5 mN/m; (323.15 K) 33.17 ± 0.49 mN/m; (333.15 K) 32.61 ± 0.48 mN/m; (343.15 K) 31.96 ± 0.48 mN/m.

With `CCC[N+]1(C)CCCC1.O=S(=O)([N-]S(=O)(=O)C(F)(F)F)C(F)(F)F`, the surface tension liquid-gas by setting is: (293.15 K) 32.54 ± 0.48 mN/m; (303.15 K) 31.95 ± 0.48 mN/m; (313.15 K) 31.5 ± 0.47 mN/m; (323.15 K) 31 ± 0.46 mN/m; (333.15 K) 30.47 ± 0.46 mN/m; (343.15 K) 29.97 ± 0.45 mN/m.
